Measured values from PMC12259270, “Sensory neuron–expressed FGF13 controls nociceptive signaling in diabetic neuropathy models” (The Journal of Clinical Investigation, 2025).
“And” between values parts separate entries of the source, which are not always exact repeats. Equal entries are not always repeated. Residues, ends and D or L forms follow the SMILES beside them. *: point of attachment. Cbz = O=C(OCc1ccccc1)*; NHPh = c1ccc(N*)cc1; OtBu = CC(C)(C)O*

Legend:
C57BL/6 mice = experiment: Thermal sensitivity (Hargreaves radiant heat) after intraplantar injection, mice without capsaicin; format: in vivo, mouse
Protocol: Experiments were performed on 6- to 12-week-old male C57BL/6 mice (The Jackson Laboratory, Bar Harbor, ME) housed in the AAALAC-accredited facility at the University of Texas Medical Branch. Mice were group-housed with up to 5 mice per cage on a 12-to-12-hour light–dark cycle and had access to water and food ad libitum. All protocols were approved by the Institutional Animal Care and Use Committee (IACUC) at the University of Texas Medical Branch and in accordance with the National Institutes of Health (NIH) guidelines.
PW164 and ZL192 were dissolved in DMSO and saline in a ratio of 1:10. 0.1% capsaicin (10% ethanol, 10% Tween-20 in saline; Sigma-Aldrich). All the compounds were injected at the center of the hind paw. The control group received a DMSO-saline mixture. […]
AAV2 viral particles packaged by the University of North Carolina Gene Therapy Core Facility (viral titer ranging […]
Before intrathecal injections in the lumbar region, mice were maintained in an anesthetizing box with 2% isoflurane to induce unconsciousness. Six microliters of viral vector were gently injected into the CSF through a 30-gauge needle with a Hamilton syringe in the lumbar area between vertebrae L4 and L5 by gently gripping the iliac crest of the mouse and inserting the needle with an angle of 45°. The correct procedure was confirmed by the mouse’s tail reflexiv e flick. […]
Assessment of thermal sensitivity
Plantar tests for thermal sensitivity were performed using the Hargreaves apparatus (Ugo Basile, Italy) in mice that were either naïve or received i.p. injection of capsaicin or test compound. A thermal stimulus, generated by an infrared-focused light source, invisible to the rodent, was applied through a glass pane, to the plantar surface of the hind paw of the animal. The response to this stimulus was considered the withdrawal of the stimulated paw (lifting and licking). Light intensity was set up at 30% and the cut-off at the 20 s. The final value of thermal withdrawal latency, expressed in seconds, was the average value of three consecutive trials. […]

FGF13/Nav1.7 CTD complex = molecular target: T1, FGF13/Nav1.7 CTD complex (Homo sapiens, UniProt Q92913); experiment: Split-luciferase complementation assay (LCA), CLuc-FGF13/CD4-Nav1.7-CTD-NLuc; format: cell-based; parameters: key to LCA dose response, Mean (Figure 1B): % of mean signal of per-plate 0.5% DMSO control wells; conditions: for Percentage luminescence, Mean: Fig 1B dose response; for Luminescence signal over time, mean: FGF13, PW164
T1 construct: Full-length FGF13-1b (aa 1-192) was subcloned into appropriate plasmids; Nav1.7 residues 1780-1977; expressed in transfected cells; host or cells: HEK293 (inferred; the LCA paragraph only says 'cells')
T1 sequence (Q92913 1-192 isoform Q92913-2): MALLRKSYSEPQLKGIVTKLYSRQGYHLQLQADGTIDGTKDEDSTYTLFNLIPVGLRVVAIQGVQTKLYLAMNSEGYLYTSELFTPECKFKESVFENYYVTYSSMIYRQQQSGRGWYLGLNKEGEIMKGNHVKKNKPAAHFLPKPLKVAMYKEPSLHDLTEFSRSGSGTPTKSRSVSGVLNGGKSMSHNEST
Text: The respective gene ID numbers used in this study are as follows: NM_033642 (human, FGF13-1b) and NM_002977 (human SCN9A). Full-length FGF13-1b (aa 1-192) was subcloned into appropriate plasmids for use in this investigation, unless otherwise noted. For consistency with AlphaFold modeling presented, numbering of point mutations to FGF13-1b are based on the longest FGF13 isoform (FGF13-1a, NM_004114.2). CLuc-FGF13, […]
and constructs expressing the CLuc or the NLuc fragments of Firefly ( Photinus pyralis) luciferase (24) respectively were engineered, mutated (CLuc-FGF13R110A) and sequenced at the Molecular Genomics Core (University of Texas Medical Branch). The CD4 -Nav1.7-CTD-NLuc cassette was synthesized from GeneArt (Nav1.7 residues 1780-1977) (ThermoFisher) and subcloned at 5'-HindIII and 3’-BsiWi restriction sites in pcDNA3.1 (Invitrogen). Additionally, FGF13 was amplified with polymerase chain reaction (PCR) by using gene-specific primers, and subcloned in pcDNA3.1 at 5’ -BsiWi and 3’-Not I restriction sites. […]
Cell Culture and transfections
HEK293 cells were purchased from ATCC (catalog # CRL-1573). Cells were cultured and incubated at 37 °C with 5% CO2 in medium with equal volumes of Dulbecco modified essential medium (DMEM) and F12 […]
Split-luciferase Complementation Assay (LCA)
Twenty-four hours post transfection, cells were trypsinized using TrypLE (Gibco; cat # 12604013), centrifuged at 1750 rpm for 5 min, triturated in medium, and seeded into white clear-bottom 96-well CELLSTAR µClear® plates (Greiner Bio -One; cat # 655073 ) at ~0.8 x 10^5 cells per well in 200 µl of medium. The cells were incubated for another 24 hours, and then the growth medium was replaced with 100 µl serum -free, phenol red -free DMEM/F-12 medium (Invitrogen). All compounds from the PW - and the ZL-series, including PW164 and ZL192, were dissolved in DMSO, added to a final concentration of 1 –500 μM (0.5 % DMSO) in the serum -free medium and then cells were incubated for two hours. The bioluminescence reaction was initiated by injection of 100 μl of D -luciferin substrate (1.5 mg/ml dissolved in PBS) using a Synergy H4 multimode microplate reader (BioTek). Luminescence readings were initiated after 3 s of mild plate shaking and performed at 2 min intervals for 20-30 min with integration times of 0.5 s, and the c ells were maintained throughout the measurements at 37 °C. Raw signal intensity was computed by averaging peak luminescence plus two adjacent time points.
Normalized signal intensity was expressed as the percentage of mean signal intensity relative to per plate control wells treated with 0.5% DMSO. […]
The FGF13 was immobilized to the final 1 0050 RU, and Nav1.7 to the 10 or 1000 RU, and no protein was coupled to the control channel of the chip. For each compound, stock solution (50 mM) was serially diluted from 300 to 1 µM; the Nav1.7 -CTD peptide (1876 -1899, 23 amino acids, MW ~2.8 kDa) was se rially diluted from 150 to 1 nM in PBS-P+ (PBS supplemented 0.005% with tween 20). Samples were injected over the chip for 60 s followed by dissociation for 120 s at the flow rate 40 µl/min; finally, the chip was regenerated using the solution of 1.5 M NaCl, 3% DMSO for 180 s. The interaction of compound or un-conjugated Nav1.7 -CTD peptide with FGF13, as […]

## COC(=O)[C@@H](NC(=O)[C@H](CCC(=O)OC(C)(C)C)NC(=O)[C@H](CC(C)C)NC(=O)[C@@H]1CCCN1C(=O)OCc1ccccc1)C(C)C [PW164] (Cbz-PLE(OtBu)V-OMe)
C57BL/6 mice; WT mice, i.pl., radiant heat test
  thermal hindpaw withdrawal thresholds (latency), normal sensitivity: Neither did PW164 affect thermal hindpaw withdrawal thresholds
FGF13/Nav1.7 CTD complex; 50 μM, individual replicates, vehicle about 100
  LCA screening of the PW-series compounds against the FGF13/Nav1.7 complex (Fig. S2C): 52.9829 and 54.4974 and 52.792 and 43.8067 and 53.8102 and 54.3574 and 65.3028 and 53.9247
FGF13/Nav1.7 CTD complex; Log (conc(M)) -3.6
  Percentage luminescence, Mean: 36.225%
FGF13/Nav1.7 CTD complex; Log (conc(M)) -3.82
  Percentage luminescence, Mean: 36.175%
FGF13/Nav1.7 CTD complex; Log (conc(M)) -4
  Percentage luminescence, Mean: 36.8%
FGF13/Nav1.7 CTD complex; Log (conc(M)) -4.12
  Percentage luminescence, Mean: 37.575%
FGF13/Nav1.7 CTD complex; Log (conc(M)) -4.22
  Percentage luminescence, Mean: 41.95%
FGF13/Nav1.7 CTD complex; Log (conc(M)) -4.3
  Percentage luminescence, Mean: 49.1%
FGF13/Nav1.7 CTD complex; Log (conc(M)) -4.4
  Percentage luminescence, Mean: 55.95%
FGF13/Nav1.7 CTD complex; Log (conc(M)) -4.6
  Percentage luminescence, Mean: 72.975%
FGF13/Nav1.7 CTD complex; Log (conc(M)) -4.7
  Percentage luminescence, Mean: 78.7625%
FGF13/Nav1.7 CTD complex; Log (conc(M)) -4.82
  Percentage luminescence, Mean: 95.2%
FGF13/Nav1.7 CTD complex; Log (conc(M)) -5
  Percentage luminescence, Mean: 102.25%
FGF13/Nav1.7 CTD complex; Log (conc(M)) -5.5
  Percentage luminescence, Mean: 98.45%
FGF13/Nav1.7 CTD complex; Log (conc(M)) -6
  Percentage luminescence, Mean: 97.8125%
FGF13/Nav1.7 CTD complex; Fig 1B, Time 0
  Luminescence signal over time, mean: 229.9
FGF13/Nav1.7 CTD complex; Fig 1B, Time 5
  Luminescence signal over time, mean: 547.2
FGF13/Nav1.7 CTD complex; Fig 1B, Time 10
  Luminescence signal over time, mean: 954.8
FGF13/Nav1.7 CTD complex; Fig 1B, Time 15
  Luminescence signal over time, mean: 1153.7
FGF13/Nav1.7 CTD complex; Fig 1B, FGF13, PW164 (20 μM)
  Percentage luminescence, single replicates: 42.7306% and 39.5799% and 34.1155% and 47.555% and 46.8165% and 80.4398% and 35.0509% and 53.5117% and 52.6748% and 30.1772% and 36.3308%
FGF13/Nav1.7 CTD complex; Figure 8D, WT PW164, replicate values beside WT DMSO
  LCA analysis of FGF13/Nav1.7: 48.4338 and 51.009 and 48.3348 and 45.8586 and 44.3729 and 45.9577 and 44.0758 and 49.7469 and 51.824 and 46.8389 and 47.9813
FGF13/Nav1.7 CTD complex; LCA dose response, Fig 1B, read-out: IC50, inhibition of FGF13/Nav1.7 complex assembly
  IC50: 29 ± 5 µM

## CC(=O)N[C@@H](Cc1ccccc1)C(=O)N[C@@H](CC(C)C)C(=O)N1CCC[C@H]1C(=O)N[C@@H](CCCCN)C(=O)Nc1ccccc1 [ZL192] (Ac-FLPK-NHPh)
C57BL/6 mice; ZL192 0.18 mg/mL, i.pl.
  thermal hypersensitivity in AAV2-shFGF13 mice: absent
  thermal sensitivity in AAV2-shCTRL mice: caused mechanical and thermal hypersensitivity
C57BL/6 mice; naive WT mice, ZL192 i.pl. 0.06 or 0.18 mg/mL
  thermal sensitivity: also seen
FGF13/Nav1.7 CTD complex; FGF13, ZL192 vs Vehicle
  LCA signal, FGF13 (Figure 1B), individual replicates: 148.142 and 186.697 and 151.094 and 172.833 and 154.782 and 172.987 and 159.506 and 193.88 and 161.695 and 170.692 and 150.24 and 163.294
FGF13/Nav1.7 CTD complex; LCA dose-response, Fig 4B, read-out: EC50, increase of FGF13/Nav1.7 complex assembly
  EC50: 28 ± 5 µM
FGF13/Nav1.7 CTD complex; Log (conc(M)) -3.6
  LCA dose response, Mean (Figure 1B): 132.85
FGF13/Nav1.7 CTD complex; Log (conc(M)) -3.82
  LCA dose response, Mean (Figure 1B): 139.626
FGF13/Nav1.7 CTD complex; Log (conc(M)) -4
  LCA dose response, Mean (Figure 1B): 140.168
FGF13/Nav1.7 CTD complex; Log (conc(M)) -4.12
  LCA dose response, Mean (Figure 1B): 146.164
FGF13/Nav1.7 CTD complex; Log (conc(M)) -4.22
  LCA dose response, Mean (Figure 1B): 133.106
FGF13/Nav1.7 CTD complex; Log (conc(M)) -4.3
  LCA dose response, Mean (Figure 1B): 141.107
FGF13/Nav1.7 CTD complex; Log (conc(M)) -4.4
  LCA dose response, Mean (Figure 1B): 130.374
FGF13/Nav1.7 CTD complex; Log (conc(M)) -4.6
  LCA dose response, Mean (Figure 1B): 116.119
FGF13/Nav1.7 CTD complex; Log (conc(M)) -4.7
  LCA dose response, Mean (Figure 1B): 109.491
FGF13/Nav1.7 CTD complex; Log (conc(M)) -4.82
  LCA dose response, Mean (Figure 1B): 110.318
FGF13/Nav1.7 CTD complex; Log (conc(M)) -5
  LCA dose response, Mean (Figure 1B): 102.555
FGF13/Nav1.7 CTD complex; Log (conc(M)) -5.5
  LCA dose response, Mean (Figure 1B): 100.737
FGF13/Nav1.7 CTD complex; Log (conc(M)) -6
  LCA dose response, Mean (Figure 1B): 101.723
